Source: US11161876B2, “Anti-inflammatory nanofibers” (Northwestern University, priority 2015, dated 2021)
“Also recorded” adds a separate entry of the source. * marks the point of attachment. C16 alkyl = CCCCCCCCCCCCCCCC*

Tests used:
[1] = system: Rat Bladder Augmentation Model; test: Bladder capacity measurement of augmented bladders; format: in vivo; settings: 5 weeks post-augmentation vs pre-surgery; means ± SE
Experimental: Athymic female rats (weighing ˜200 g and 8-10 weeks old; National Cancer Institute Animal Production Program) underwent bladder augmentation (ref. 15; herein incorporated by reference in its entirety). Athymic rats were chosen for this study to solely examine the innate immune response to inflammation without influence of the adaptive immune response. In order to induce anesthesia, animals were given intraperitoneal injections of 60 mg/kg ketamine and 5 mg/kg xylazine. A second injection consisting of Buprenex (1 mg/kg) was administered subcutaneously to alleviate any pain/discomfort during and following surgical procedures. An approximate 1.5 cm midline vertical skin incision was created to expose the abdominal fascia and muscles. This was immediately followed by the separation of the wall leading to the identification of the bladder. An approximate 70% supratrigonal cystectomy was performed from anterior to posterior creating a clamshell. Immediately prior to bladder augmentation procedures, samples of the pro-inflammatory biological scaffold, small intestinal submucosa (SIS (0.5×0.5 cm); Cook Biotech.) (refs. 12,13,16; herein incorporated by reference in their entireties) were thoroughly dip-coated separately in one of the previously described AIF-PAs following gelation procedures. The sections of SIS were dip-coated for approximately 20 seconds and allowed to adhere to the SIS for an additional 30 seconds. Dip-coating procedures were performed at room temperature in air. […]
The bladders of anesthetized athymic rats were exposed through the abdomen as previously described. […] Continuous reading of the transvesical pressure was measured and plotted using LabChart 7.3 software (AD Instruments). […] Bladder capacity was measured by a modified protocol (ref. 13; herein incorporated by reference in its entirety). […]

[2] = system: Rat Bladder Augmentation Model; test: Lectin labelling of functional blood vessels in regenerated bladder; format: in vivo; settings: 5W post-augmentation
Experimental: In order to determine whether blood vessels in regenerating tissue underwent functional angiogenesis, a fluorochrome conjugated tomato lectin was injected into the animals immediately prior to euthanization to label potential angiogenic vessels. […] Magnification 400× (Scale bar, 50 μm).

CD86+ M1 macrophages = test: M1 macrophage subtype (CD86) distribution in regenerating bladder tissue; format: in vivo, rat; settings: for M1 macrophage levels, in words: 10 days to 5 weeks
Experimental: (§1) Athymic female rats (weighing ˜200 g and 8-10 weeks old; National Cancer Institute Animal Production Program) underwent bladder augmentation (ref. 15; herein incorporated by reference in its entirety). Athymic rats were chosen for this study to solely examine the innate immune response to inflammation without influence of the adaptive immune response. In order to induce anesthesia, animals were given intraperitoneal injections of 60 mg/kg ketamine and 5 mg/kg xylazine. A second injection consisting of Buprenex (1 mg/kg) was administered subcutaneously to alleviate any pain/discomfort during and following surgical procedures. An approximate 1.5 cm midline vertical skin incision was created to expose the abdominal fascia and muscles. This was immediately followed by the separation of the wall leading to the identification of the bladder. An approximate 70% supratrigonal cystectomy was performed from anterior to posterior creating a clamshell. Immediately prior to bladder augmentation procedures, samples of the pro-inflammatory biological scaffold, small intestinal submucosa (SIS (0.5×0.5 cm); Cook Biotech.) (refs. 12,13,16; herein incorporated by reference in their entireties) were thoroughly dip-coated separately in one of the previously described AIF-PAs following gelation procedures. The sections of SIS were dip-coated for approximately 20 seconds and allowed to adhere to the SIS for an additional 30 seconds. Dip-coating procedures were performed at room temperature in air. The cystectomized bladder defect was then augmented with: 1) SIS (non-AIF-PA coated SIS; n=8 animals over both time-points); 2) AIF-PA1 coated SIS (denoted as SIS/AIF-PA1; n=11 animals over both time-points); 3) AIF-PA2 coated SIS (denoted as SIS/AIF-PA2; n=8 animals over both time-points); 4) AIF-PA3 coated SIS (denoted as SIS/AIF-PA3; n=3); 5) AIF-PA4 coated SIS (denoted as SIS/AIF-PA4; n=3 animals); 6) AIF-PA5 coated SIS (denoted as SIS/AIF-PA5; n=3 animals); and 7) AIFC-PA6 coated SIS (denoted as SIS/AIFC-PA6; n=9 animals over both time-points). The bladder was finally covered with omentum after being closed in a watertight manner utilizing 7-0 polyglactin suture. The abdominal wall was then closed in a single layer with 5-0 ethibond running suture and the skin re-approximated with 9 mm autoclips. Each group was sacrificed at 10 day and 5 week time-points.
(§2) Tissue sections comprised of SIS alone, SIS/AIF-PA1, SIS/AIF-PA2, and SIS/AIF-PA6 augmentations were subjected to immunofluorescence staining by initially undergoing antigen retrieval which consisted of 15 min of boiling in citrate buffer (0.01M citrate solution, pH 6.0 with 0.05% Tween-20) followed by cooling at room temperature for approximately 20 minutes. The antibody staining process consisted of a blocking step for 15 min in bovine serum albumin (BSA, 5 mg/ml) followed by a 40 minutes incubation at room temperature with the primary antibody. After washing with DPBS, slides were incubated for 30 min with a secondary antibody and eventually rinsed with DPBS and air dried. Slides were mounted with Vectashield (Vector Laboratories). Primary antibodies were directed against epitopes for the inflammatory markers CD68 (macrophage) (refs. 18,19; herein incorporated by reference in their entireties) MPO (neutrophil) (ref. 20; herein incorporated by reference in its entirety) or the inflammation-related proteins IL1β, TNFα, IL-10, IL-13, CD206 (M2 macrophage) (refs. 21-25; herein incorporated by reference in their entireties) and CD86 (M1 macrophage) (ref. 26; herein incorporated by reference in its entirety). Antibodies directed against the ECM in regenerating bladder tissue (including COL4A3 and fibronectin) were also utilized. Alexa Red 555 or FITC conjugated secondary antibodies (Molecular Probes) were utilized for visualization (ref. 15; herein incorporated by reference in its entirety). […]

CD68+ macrophages = test: Immunofluorescence quantification of CD68+ macrophages in regenerated bladder tissue; format: in vivo, rat
Experimental: as §1, §2

| Substance | Bladder Capacity Recovery [1] [%] | functional angiogenesis of newly formed blood vessels (lectin) [2] | number of M1 macrophages (CD86+ M1 macrophages; 5W post-augmentation) [cells/mm^2] | M1 macrophage levels, in words (CD86+ M1 macrophages) | percentage of cells CD68+ (CD68+ macrophages; 5 weeks post-augmentation) [%] | percentage of cells CD68+ (CD68+ macrophages; 10 days post-augmentation) [%] | number of M1 macrophages (CD86+ M1 macrophages; 10D post-augmentation) [cells/mm^2] |
| --- | --- | --- | --- | --- | --- | --- | --- |
| C16-VVVAAAEEEHDMNKVLDL (SEQ ID NO:2) ({C16 alkyl}-VVVAAAEEEHDMNKVLDL-NH2) [SIS/AIF-PA2, anti-inflammatory peptide amphiphile, tested dip-coated on small intestinal submucosa (SIS) scaffold] | 104.4 ± 6.7 | functional, patent blood vessels | 389.4±62.6 | Comparatively low numbers | 16.5±1.6 | 23.1±3.3 |  |
| C16-VVVAAAEEEMQMKKVLDS (SEQ ID NO:1) ({C16 alkyl}-VVVAAAEEEMQMKKVLDS-NH2) [SIS/AIF-PA1, anti-inflammatory peptide amphiphile, tested dip-coated on small intestinal submucosa (SIS) scaffold] | 112.1 ± 3.3 | functional, patent blood vessels | 343.4±45.4 | dropped considerably; also recorded: significant decline over time | 17.6±1.8 | 33.4±2.0 |  |
| C16-VVVAAAEEEKLMSQKMVD (SEQ ID NO:6) ({C16 alkyl}-VVVAAAEEEKLMSQKMVD-NH2) [SIS/AIFC-PA6, reference compound] | 105.4 ± 5.1 |  | 957.7±106.2 |  | 42.0±2.6 |  | 986.9±18.1 |
